C=C[C@]1(C)C[C@@H](OC(=O)CSCCN(CC)CC)[C@]2(C)[C@H](C)CC[C@]3(CCC(=O)[C@H]32)[C@@H](C)[C@@H]1O.O=C(O)/C=C/C(=O)O
solubility (mole fraction)
Conditions	283.15 K	293.15 K	303.15 K	313.15 K	323.15 K
in MIBK	0.000867	0.00108	0.00134	0.00191	0.00254
in acetone	0.00132	0.00257	0.00377	0.00574	0.00861
in acetonitrile	8.33e-05	0.00016	0.000235	0.000495	0.000993
in ethyl acetate	0.000525	0.000719	0.00102	0.00147	0.00215
in isobutyl acetate	0.000437	0.000574	0.000744	0.00103	0.00143
in isopropanol	0.00103	0.00124	0.00173	0.00288	0.00466
in isopropyl acetate	0.00044	0.00061	0.000823	0.00118	0.00163
in methyl acetate	0.000372	0.000443	0.000624	0.000964	0.00142
in n-butanol	0.00276	0.00458	0.00596	0.00962	0.0173
in n-butyl acetate	0.000517	0.000712	0.001	0.0013	0.00168
in toluene	5.73e-05	9.62e-05	0.000174	0.000274	0.000537

From BigSolDB 2.1
